According to US6737383B1, “Herbicidal oxadiazolidines” (priority 1999, dated 2004):

Key:
[1] = test system: corn; experiment: Test B pre/postemergence corn; format: in vivo, Zea mays; settings: for Plant response rating, Corn: scale of 0 to 10 where 0 is no effect and 10 is complete control
In short: (§1)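 Test chemicals in a non-phytotoxic solvent mixture with surfactant were sprayed preemergence onto planted seeds and postemergence onto plants 2 to 18 cm tall (1- to 4-leaf stage). After twelve to sixteen days in a greenhouse, injury was visually rated against untreated controls from 0 (no effect) to 10 (complete control).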

[2] = test system: velvetleaf; experiment: Test B pre/postemergence velvetleaf; format: in vivo, Abutilon theophrasti; settings: for Plant response rating, Velvetleaf: scale of 0 to 10 where 0 is no effect and 10 is complete control
In short: as §1

[3] = test system: blackgrass; experiment: Test B pre/postemergence blackgrass; format: in vivo, Alopecurus myosuroides; settings: for Plant response rating, Blackgrass: scale of 0 to 10 where 0 is no effect and 10 is complete control
In short: as §1

[4] = test system: rape; experiment: Test B pre/postemergence rape; format: in vivo, Brassica napus; settings: for Plant response rating, Rape: scale of 0 to 10 where 0 is no effect and 10 is complete control
In short: as §1

[5] = test system: wheat; experiment: Test B pre/postemergence wheat; format: in vivo, Triticum aestivum; settings: for Plant response rating, Wheat: scale of 0 to 10 where 0 is no effect and 10 is complete control
In short: as §1

[6] = test system: purple nutsedge; experiment: Test B pre/postemergence purple nutsedge; format: in vivo, Cyperus rotundus
In short: as §1

[7] = test system: surinam grass; experiment: Test B pre/postemergence surinam grass; format: in vivo, Brachiaria decumbens; settings: for Plant response rating, B. signalgrass: scale of 0 to 10 where 0 is no effect and 10 is complete control
In short: as §1

[8] = test system: wild oat; experiment: Test B pre/postemergence wild oat; format: in vivo, Avena fatua; settings: for Plant response rating, Wild oats: scale of 0 to 10 where 0 is no effect and 10 is complete control
In short: as §1

[9] = test system: soybean; experiment: Test B pre/postemergence soybean; format: in vivo, Glycine max; settings: for Plant response rating, Soybean: scale of 0 to 10 where 0 is no effect and 10 is complete control
In short: as §1

[10] = test system: pigweed; experiment: Test B pre/postemergence pigweed; format: in vivo, Amaranthus retroflexus; settings: for Plant response rating, Redroot pigweed: scale of 0 to 10 where 0 is no effect and 10 is complete control
In short: as §1

[11] = test system: sugar beet; experiment: Test B pre/postemergence sugar beet; format: in vivo, Beta vulgaris; settings: for Plant response rating, Sugarbeets: scale of 0 to 10 where 0 is no effect and 10 is complete control
In short: as §1

[12] = test system: morningglory; experiment: Test B pre/postemergence morningglory; format: in vivo, Ipomoea hederacea; settings: for Plant response rating, Morningglory: scale of 0 to 10 where 0 is no effect and 10 is complete control
In short: as §1

[13] = test system: cocklebur; experiment: Test B pre/postemergence cocklebur; format: in vivo, Xanthium strumarium; settings: for Plant response rating, Cocklebur: scale of 0 to 10 where 0 is no effect and 10 is complete control
In short: as §1

[14] = test system: giant foxtail; experiment: Test B pre/postemergence giant foxtail; format: in vivo, Setaria faberii; settings: for Plant response rating, Giant foxtail: scale of 0 to 10 where 0 is no effect and 10 is complete control
In short: as §1

[15] = test system: crabgrass; experiment: Test B pre/postemergence crabgrass; format: in vivo, Digitaria sanguinalis; settings: for Plant response rating, Crabgrass: scale of 0 to 10 where 0 is no effect and 10 is complete control
In short: as §1

[16] = test system: bedstraw; experiment: Test B pre/postemergence bedstraw; format: in vivo, Galium aparine; settings: for Bedstraw plant response rating: scale 0 to 10 (0 no effect, 10 complete control); for Plant response rating, Bedstraw: scale of 0 to 10 where 0 is no effect and 10 is complete control
In short: as §1

[17] = Postemergence, Rate 31 g/ha, visual rating, scale 0 to 10 (0 no effect, 10 complete control)
[18] = Postemergence, Rate 125 g/ha, scale 0 to 10, 0 is no effect, 10 is complete control
[19] = Postemergence, Rate 250 g/ha, scale 0 to 10
[20] = Preemergence, Rate 31 g/ha, visual rating, scale 0 to 10 (0 no effect, 10 complete control)
[21] = Preemergence, Rate 250 g/ha, scale 0 to 10, 0 is no effect, 10 is complete control
[22] = Rate 62 g/ha, Postemergence, scale 0 to 10 (0 no effect, 10 complete control)

## CC(C)N(C(=O)n1oc(=O)n(C(C)C(=O)N(C)C)c1=O)c1ccc(F)cc1F (centres unmarked) [Compound 481]
[1]; [17]
  Corn plant response rating: 0
[1]; [18]
  Corn plant response rating: 3
[1]; [19]
  Corn plant response rating: 3
[1]; [20]
  Corn plant response rating: 0
[1]; Preemergence, Rate 62 g/ha
  Plant response rating, Corn: 0
[1]; Preemergence, Rate 125 g/ha
  Plant response rating, Corn: 0
[1]; [21]
  Corn plant response rating: 0
[1]; [22]
  Corn plant response rating: 0
[2]; [17]
  Velvetleaf plant response rating: 0
[2]; [18]
  Velvetleaf plant response rating: 0
[2]; [19]
  Velvetleaf plant response rating: 0
[2]; Preemergence, Rate 62 g/ha
  Plant response rating, Velvetleaf: 0
[2]; Preemergence, Rate 125 g/ha
  Plant response rating, Velvetleaf: 0
[2]; [21]
  Velvetleaf plant response rating: 0
[2]; [22]
  Velvetleaf plant response rating: 0
[3]; [17]
  Blackgrass plant response rating: 0
[3]; [18]
  Blackgrass plant response rating: 0
[3]; [19]
  Blackgrass plant response rating: 2
[3]; [20]
  Blackgrass plant response rating: 3
[3]; Preemergence, Rate 62 g/ha
  Plant response rating, Blackgrass: 6
[3]; Preemergence, Rate 125 g/ha
  Plant response rating, Blackgrass: 6
[3]; [21]
  Blackgrass plant response rating: 10
[3]; [22]
  Blackgrass plant response rating: 0
[4]; [17]
  Rape plant response rating: 0
[4]; [18]
  Rape plant response rating: 0
[4]; [19]
  Rape plant response rating: 0
[4]; Preemergence, Rate 62 g/ha
  Plant response rating, Rape: 0
[4]; Preemergence, Rate 125 g/ha
  Plant response rating, Rape: 0
[4]; [21]
  Rape plant response rating: 0
[4]; [22]
  Rape plant response rating: 0
[5]; [17]
  Wheat plant response rating: 0
[5]; [18]
  Wheat plant response rating: 0
[5]; [19]
  Wheat plant response rating: 0
[5]; Preemergence, Rate 62 g/ha
  Plant response rating, Wheat: 0
[5]; Preemergence, Rate 125 g/ha
  Plant response rating, Wheat: 3
[5]; [21]
  Wheat plant response rating: 2
[5]; [22]
  Wheat plant response rating: 0
[6]; [17]
  Nutsedge plant response rating: 0
[6]; [19]
  Nutsedge plant response rating: 0
[6]; Preemergence, Rate 125 g/ha, scale of 0 to 10 where 0 is no effect and 10 is complete control
  Plant response rating, Nutsedge: 4
[6]; [21]
  Nutsedge plant response rating: 6
[6]; [22]
  Nutsedge plant response rating: 0
[7]; [17]
  B. signalgrass plant response rating: 0
[7]; [18]
  B. signalgrass plant response rating: 0
[7]; Postemergence, Rate 250 g/ha, scale 0 to 10, 0 no effect, 10 complete control
  B. signalgrass plant response rating: 6
[7]; [20]
  B. signalgrass plant response rating: 7
[7]; Preemergence, Rate 62 g/ha
  Plant response rating, B. signalgrass: 7
[7]; Preemergence, Rate 125 g/ha
  Plant response rating, B. signalgrass: 9
[7]; [21]
  B. signalgrass plant response rating: 9
[7]; [22]
  B. signalgrass plant response rating: 0
[8]; [17]
  Wild oats plant response rating: 0
[8]; [18]
  Wild oats plant response rating: 0
[8]; [19]
  Wild oats plant response rating: 0
[8]; Preemergence, Rate 62 g/ha
  Plant response rating, Wild oats: 4
[8]; Preemergence, Rate 125 g/ha
  Plant response rating, Wild oats: 6
[8]; [21]
  Wild oats plant response rating: 8
[8]; [22]
  Wild oats plant response rating: 0
[9]; [17]
  Soybean plant response rating: 4
[9]; [18]
  Soybean plant response rating: 4
[9]; [19]
  Soybean plant response rating: 4
[9]; Preemergence, Rate 62 g/ha
  Plant response rating, Soybean: 0
[9]; Preemergence, Rate 125 g/ha
  Plant response rating, Soybean: 0
[9]; [21]
  Soybean plant response rating: 0
[9]; [22]
  Soybean plant response rating: 4
[10]; [17]
  Redroot pigweed plant response rating: 0
[10]; [18]
  Redroot pigweed plant response rating: 0
[10]; [19]
  Redroot pigweed plant response rating: 0
[10]; Preemergence, Rate 62 g/ha
  Plant response rating, Redroot pigweed: 0
[10]; Preemergence, Rate 125 g/ha
  Plant response rating, Redroot pigweed: 0
[10]; [21]
  Redroot pigweed plant response rating: 3
[10]; [22]
  Redroot pigweed plant response rating: 0
[11]; [17]
  Sugarbeets plant response rating: 0
[11]; [18]
  Sugarbeets plant response rating: 0
[11]; [19]
  Sugarbeets plant response rating: 0
[11]; Preemergence, Rate 62 g/ha
  Plant response rating, Sugarbeets: 0
[11]; Preemergence, Rate 125 g/ha
  Plant response rating, Sugarbeets: 0
[11]; [21]
  Sugarbeets plant response rating: 2
[11]; [22]
  Sugarbeets plant response rating: 0
[12]; [17]
  Morningglory plant response rating: 0
[12]; [18]
  Morningglory plant response rating: 0
[12]; [19]
  Morningglory plant response rating: 2
[12]; Preemergence, Rate 62 g/ha
  Plant response rating, Morningglory: 0
[12]; Preemergence, Rate 125 g/ha
  Plant response rating, Morningglory: 0
[12]; [21]
  Morningglory plant response rating: 0
[12]; [22]
  Morningglory plant response rating: 0
[13]; [17]
  Cocklebur plant response rating: 0
[13]; [18]
  Cocklebur plant response rating: 0
[13]; [19]
  Cocklebur plant response rating: 0
[13]; [20]
  Cocklebur plant response rating: 0
[13]; Preemergence, Rate 62 g/ha
  Plant response rating, Cocklebur: 0
[13]; Preemergence, Rate 125 g/ha
  Plant response rating, Cocklebur: 0
[13]; [21]
  Cocklebur plant response rating: 0
[13]; [22]
  Cocklebur plant response rating: 0
[14]; [17]
  Giant foxtail plant response rating: 0
[14]; [18]
  Giant foxtail plant response rating: 2
[14]; [19]
  Giant foxtail plant response rating: 8
[14]; [20]
  Giant foxtail plant response rating: 8
[14]; Preemergence, Rate 62 g/ha
  Plant response rating, Giant foxtail: 9
[14]; Preemergence, Rate 125 g/ha
  Plant response rating, Giant foxtail: 9
[14]; [21]
  Giant foxtail plant response rating: 9
[14]; [22]
  Giant foxtail plant response rating: 2
[15]; [17]
  Crabgrass plant response rating: 0
[15]; [18]
  Crabgrass plant response rating: 2
[15]; [19]
  Crabgrass plant response rating: 2
[15]; [20]
  Crabgrass plant response rating: 7
[15]; Preemergence, Rate 62 g/ha
  Plant response rating, Crabgrass: 7
[15]; Preemergence, Rate 125 g/ha
  Plant response rating, Crabgrass: 8
[15]; [21]
  Crabgrass plant response rating: 8
[15]; [22]
  Crabgrass plant response rating: 0
[16]; Preemergence, Rate 31 g/ha, visual rating
  Bedstraw plant response rating: 0
[16]; Preemergence, Rate 62 g/ha
  Plant response rating, Bedstraw: 0
[16]; Preemergence, Rate 125 g/ha
  Plant response rating, Bedstraw: 0
[16]; Rate 62 g/ha, Postemergence
  Bedstraw plant response rating: 0
